Measured values reported in patent US8076449B2, “Therapeutic agents of colivelin for neurodegenerative diseases” (Tomohiro Chiba, priority 2004, dated 2011).
Entries after “also recorded” stand apart in the source; their conditions may differ. Ends that are not written are not given here.

Assays:
[1] = system: primary cultured cortical neurons treated with Aβ (1-43); experiment: Neuronal cell death induced by Aβ (1-43) peptide, WST-8 and calcein cell viability assays; assay type: cell-based, mouse
Method: (ii) Test of Neuronal Cell Death Induced by Aβ (1-43) Peptide
Mouse cortical neurons were primarily cultured on a poly-D-lysine-coated 96-well plate (Sumitomo Bakelite, Akita, Japan) in the absence of serum and the presence of N2 […] according to the previous report (Sudo et al., 2000, Mol. Cell. Neurosci., 16: 708-723). The purity of the neurons by this method was 98% or more. The prepared neurons (5.0×10^4 cells/well, 100 μl of medium/well) were cultured for 72 hours in the presence or absence of varying concentrations (100 aM, 1 fM, 10 fM, 100 fM, 1 pM, 10 pM, 100 pM, 1 nM, 10 nM, or 100 nM) of colivelin or AGA-C8R-HNG17 peptide. Since primary cultured neurons temporarily become fragile during medium replacement, the neurons were treated with 25 μM Aβ as follows: at first, a half volume (50 μl) of the old medium was discarded. Next, 50 μM Aβ and 50 μl of prewarmed fresh medium containing varying concentrations of colivelin or AGA-CBR-HNG17 peptides were added to the culture. Aβ (1-43) was purchased from Peptide Institute. The Aβ peptides used at the concentration of 25 μM for inducing neuronal cell death formed aggregation in the medium during 72-hour cell culture at 37° C. (Hashimoto Y, et al., 2001, J Neurosci 21: 9235-9245).
WST-8 cell viability assay was conducted with Cell Counting Kit-8 according to the previous report (Hashimoto Y, et al, 2001, Proc Natl Acad Sci USA 98: 6336-6341).
Calcein assay was conducted with calcein-AM (Dojindo, Kumamoto, Japan) according to the previous report (Hashimoto Y, et al., 2001, J Neurosci 21: 9235-9245).
These assays were simultaneously performed. After 72 hours of the Aβ treatment, the cells were added to a mixture of 10 μl of WST-8 solution and 1 μl of 600 μM calcein-AM and cultured at 37° C. for 2 hours in a CO2 incubator to measure a WST-8 absorption at O.D. 450. To decrease background, the medium was replaced by phosphate-buffered saline, followed by the measurement of calcein-specific fluorescence (excitation: 485 nm, emission: 535 nm) by fluorescence microcopy or with a spectrofluorometer (Wallac 1420 ARVOsx Multi Label Counter; Perkin Elmer, Wellesley, Mass., USA).

[2] = system: F11 cells transformed with M146L-PS1; experiment: M146L-PS1-induced neuronal cell death in the presence of ADNF, Trypan blue exclusion assay; assay type: cell-based, rat/mouse hybrid; details: for concentration completely suppressing M146L-PS1-induced cell death in the presence of ADNF: in the presence of 100 nM ADNF, 72 hours
Method: The protective effect of colivelin and ADNF used together against neuronal cell death induced by M146L-PS1 was examined. F11 cells were transformed with M146L-PS1 in the presence or absence of […] and treated with varying concentrations (100 aM, 1 fM, 10 fM, 100 fM, 1 pM, 10 pM, 100 pM, 1 nM, 10 nM, or 100 nM) of colivelin or AGA-C8R-HNG17.
After 72 hours of the transformation, cell mortality was measured by Trypan blue exclusion assay (FIG. 4). Approximately 50% of the neuronal cells died after the transformation with mutant PS1 gene, whereas only 10% of the untreated or empty vector-transformed cells died. […] When the M146L-PS1-transformed neuronal cells in the presence of 100 nM ADNF were treated with 10 pM colivelin, the neuronal cells died at a rate equal to that of the untreated (No) or empty vector (vec)-transformed cells.

G93A-SOD1 Tg mice = experiment: In vivo effect on ALS mice: onset, survival, rotarod (Example 5); parameters: species or system mouse
Method: Mice treated with a control (n=16), ADNF (n=15), AGA-C8R-HNG17 (n=14), or colivelin (n=13) were compared by the Kaplan-Meier life test. In addition, the average day of death was compared (FIG. 8c), wherein statistical analysis was conducted by one-way ANOVA, followed by Fischer's PLSD test (**p<0.01). The motor function was evaluated by a rotarod test (FIG. 8d). Mice icy-administered with a control (n=13), ADNF (n=14), AGA-C8R-HNG17 (n=14), or colivelin (n=12) were placed onto a rotating rod at a speed of 5 rpm and observed over max 420 seconds, wherein statistical analysis was conducted by repeatedly measured ANOVA and Fischer's PLSD test.
Cannulas were fixed under aseptic conditions to the left lateral ventricles of G93A-SOD1 Tg mice (ALS model mice, 70-day-old). Colivelin ([…] in 3 μl of saline per two days) was icy-injected through the cannulas to compare its protective effect with those of the same amount of ADNF and AGA-C8R-HNG17 (FIG. 8).
The 1-onset (FIG. 8a) and survival (FIG. 8b) of mice treated with a control (n=16), ADNF (n=15), AGA-C8R-HNG17 (n=14), or colivelin (n=13) were compared by the Kaplan-Meier life test. As a result, the colivelin-treated group completely delayed ALS onset up to approximately 114 days, as compared with the ADNF-treated group (approximately 106 days) and the AGA-C8R-HNG17-treated group (approximately 108 days). Regarding survival as well, the colivelin-treated group prolonged the life span of 100% of the mice up to approximately 145 days, as compared with the ADNF-treated group (approximately 133 days) and the AGA-CBR-HNG17-treated group (approximately 138 days). Average age at death was longest in the colivelin-treated mice and was approximately 153 days (FIG. 8c).
Additionally, the motor function was evaluated by the rotarod test (FIG. 8d). Mice treated with a control (n=13), ADNF (n=14), AGA-C8R-HNG17 (n=14), or colivelin (n=12) were placed onto a rotating rod at a speed of 5 rpm and observed over max 420 seconds, wherein statistical analysis was conducted by ANOVA and Fischer's PLSD test.

[3] = 10 μmol in 3 μl of saline per two days, icv
[4] = Aβ (1-43)-induced neuronal cell death

| Sequence | concentration achieving complete protection ([1]; 25 μM Aβ (1-43), 72 hours) [fM] | EC50 ([1]; 25 μM Aβ (1-43), 72 hours, WST-8, read-out: concentration at which half of the neurons were rescued) [pM] | concentration completely suppressing M146L-PS1-induced cell death in the presence of ADNF [2] [pM] | ALS onset completely delayed up to (Kaplan-Meier) (G93A-SOD1 Tg mice; [3]) | life span of 100% of the mice prolonged up to (Kaplan-Meier survival) (G93A-SOD1 Tg mice; [3]) | concentration at or over which protective activity attenuated ([1]; Aβ (1-43) toxicity) [nM] | effect of ADNF itself on cell death ([2]; 100 nM ADNF alone) | potency relative to AGA-C8R-HNG17 [1, 4] [fold] | potency relative to HNG [1, 4] | protective activity at high concentration ([1]; at 100 nM) | activity level with 100 nM ADNF relative to that without ADNF ([2]; M146L-PS1, 10 pM with ADNF versus without) | average age at death (G93A-SOD1 Tg mice; [3]) | motor function by rotarod test (G93A-SOD1 Tg mice; 5 rpm, max 420 seconds, icv treatment) |
| --- | --- | --- | --- | --- | --- | --- | --- | --- | --- | --- | --- | --- | --- |
| PAGASRLLLLTGEIDLP [AGA-C8R-HNG17, Pro-Ala-Gly-Ala-Ser-Arg-Leu-Leu-Leu-Leu-Thr-Gly-Glu-Ile-Asp-Leu-Pro, reference compound] | 10000 | 1 | 10 | approximately 108 days | approximately 138 days | – | – | – | – | – | – | – | – |
| SALLRSIPA [ADNF, reference compound] | 100 | – | – | approximately 106 days | approximately 133 days | ≥ 1 | Neither general cell death nor M146L-PS1-induced neuronal cell death was affected | – | – | – | – | – | – |
| SALLRSIPAPAGASRLLLLTGEIDLP [colivelin] | 100 | – | 10 | approximately 114 days | approximately 145 days | – | – | 100 | 100,000 fold | did not disappear | 1/100 | approximately 153 days | ameliorated most; also recorded: significantly better |
